How the values were obtained:
[1] = system: tumor necrosis factor-α; experiment: TNF-α in serum of LPS endotoxin-shock mice; assay type: in vivo, mouse (CDF1); settings: for TNF in serum (Mean ± SE): n=5, control 2.32 ± 0.15
Description: (1) LPS (lipopolysaccharide manufactured by Sigma) was intraperitoneally injected (10 μg/mouse) to female CDF1 mice of eight weeks age (purchased from Nippon SLC at seven weeks age with bodyweight of 20 g followed by subjecting a preliminary breeding for one week at our end) and endotoxin-shock models were prepared. GM was orally administered at the dose of 100 and 1000 mg/kg at thirty minutes before administration of LPS. After one hour from the administration of LPS, blood was collected from the mice, serum was separated and amount of the tumor necrosis factor-α in the serum was measured by a commercially available ELISA kit (manufactured by Endogen).

[2] = system: Jurkat cells; experiment: Growth of Jurkat cells (MTT); assay type: cell-based, human; settings: 24 hours
Description: (1) Jurkat cells (ATCC TIB-152) and Molt-3 cells (ATCC CRL-1552) which were human T cell leukemia cell stain were incubated in an RPMI 1640 medium (manufactured by Gibco BRL) containing 10% fetal calf serum (FCS, manufactured by Bio Whittaker) at 37° C. in the presence of 5% CO2 and the cells were then suspended in the above-mentioned medium containing 0, 5, 10 or 20 μM of GM to make the cell numbers 5×10^5 cells/ml followed by incubating for 24 hours. Cell growth was measured by an MTT method [Mosmann, et al.: J. Immunol. Methods, volume 65, pages 55-63 (1983)] wherein degree of cell growth was determined by the absorbance at 560 nm.

[3] = system: Fas antigen; experiment: Fas antigen expression in Molt-3 cells; assay type: cell-based, human
Description: (2) Influence of GM on Fas antigen expression (productive induction) in Jurkat cells and Molt-3 cells was measured as follows. In a 10% FCS-containing RPMI 1640 medium containing 0, 1, 5, 10 or 20 μM of cyclopentenone or GM, 5×10^5 cell/ml of Jurkat cells or Molt-3 cells were incubated at 37° C. for 24 hours in the presence of 5% of CO2 and then subjected to a two-step immunostaining using an anti-Fas antibody (manufactured by Boehringer-Ingelheim) in accordance with a method of Munker [Munker, R.: Ann. Hematol., volume 70, pages 15-17 (1995)].
Fluorescence intensity of the stained 1×10^4 cells was measured by a flow cytometer (Orthocytron; manufactured by Ortho Diagnostic Systems) and ratio of the cell showing a predetermined or higher fluorescence intensity which were Fas antigen-expressing cells was calculated.
(3) Molt-3 cells were incubated for 1, 3, 6, 12 or 24 hours after addition of 10 (i M of GM by the same manner as in Example 12-(2) and then the ratio of the cells which expressed Fas antigen was measured by the same method as in Example 12-(2)sa

[4] = system: CEM-3B cells (CEM-SS cells infected with HIV-1IIIB); experiment: Survival rate of HIV-1IIIB-infected CEM-SS cells (CEM-3B); assay type: cell-based; settings: for survival rate of cells: one day
Description: GM (0, 4, 8 or 16 μM) was added to 2×10^5 cell/ml of CEM-SS cells (ATCC CCL-119) and to CEM-SS cells infected with HIV-1IIIB (wherein not less than 90% of the CEM-SS cells were infected with the HIV-1IIIB; hereinafter, referred to as CEM-3B) incubation was conducted for one day, viable cell numbers and dead cell numbers were counted and survival cell rate was calculated.

[5] = system: p24 antigen; experiment: p24 antigen in culture supernatant of CEM-3B cells; assay type: cell-based, HIV-1IIIB; settings: one day
Description: (2) Concentration of p24 antigen contained in the supernatant liquid in the culture after incubation of the CEM-3B cells mentioned in Example 15-(1) for one day was measured.

[6] = system: NIH 3T3/Y-1; experiment: Colony formation of control-vector NIH 3T3/Y-1 cells; assay type: cell-based; settings: 5 μM GM, nine days; control 83.3 ± 8.4
Description: (1) Transformation to Escherichia coli HB101 was conducted by control plasmid pcD2-Y expressing G418-resisting gene [Mol. Cell. Biol., volume 7, pages 2745-2752 (1987)] and plasmid pcD2-16E7 which was capable of expressing both HPV 16 type E7 and G418-resisting gene [Jpn. J. Cancer Res., volume 82, pages 1340-1343 (1991)], then incubation was conducted in an L-broth medium and plasmid was extracted from the collected cells and purified by a cesium chloride density gradient ultracentrifugation to give vector plasmid for introduction of gene.
The purified plasmid (10 μg) was introduced into NIH 3T3 cells using a cationic liposome (TransIT LT-1, manufactured by Takara Shuzo), the cells were selected at 37° C. under the condition of 5% CO2 for two weeks in a Dulbecco-modified Eagle's medium containing 10% calf serum which contained 0.4 mg/ml of G418 (Gibco) and the resulting colonies were cloned to establish each nine strains of NIH 3T3 cells into which control vector was introdcd and NIH 3T3 cells which was cancerated with HPV 16 type E7.
The cell strains into which control vector was introduced were named NIH 3T3/Y-1, NIH 3T3/Y-2, NIH 3T3/Y-3, NIH 3T3/Y-4, NIH 3T3/Y-5, NIH 3T3/Y-6, NIH 3T3/Y-7, NIH 3T3/Y-8 and […]). […]
A part of the suspension was taken out and cell density was counted by a Neubauer's hemocytometer. […]

N[C@@H](CCC(=O)N[C@@H](CSC1C=C(O)C(=O)C1)C(=O)NCC(=O)O)C(=O)O (stereo partly shown) [GM, 2-hydroxy-4-glutathion-S-yl-2-cyclopenten-1-one]
TNF in serum (Mean ± SE) ([1]; 100 mg/kg oral): 2.22 ± 0.26 ng/mL
inhibition of production of tumor necrosis factor (in words) ([1]; 1000 mg/kg oral): significantly inhibited
TNF in serum (Mean ± SE) ([1]; 1000 mg/kg oral): 1.16 ± 0.26 ng/mL
effect in the growth of cells ([2]; 5 μM or less): no significant effect in the growth of cells
inhibition at 10 µM ([2]; Homo sapiens, 10 μM, read-out: inhibition of cell growth): ~50%
inhibition at 20 µM ([2]; Homo sapiens, 20 μM, read-out: inhibition of cell growth): ≥ 75%
ratio of Fas antigen-expressing cells, time course ([3]; 10 μM, 1-24 hours): increased after 12 hours from the incubation and further increase was noted after 24 hours
ratio of Fas antigen-expressing cells ([3]; 1-10 μM, 24 hours): the ratio of Fas antigen-expressing cells increased on a concentration-dependent manner
survival rate of cells ([4]; 16 μM, compared with CEM-SS): decreased more significantly
survival rate of cells ([4]; 4 or 8 μM): the survival rate significantly decreased depending upon the concentration
selective cytocidal effect to HIV-infected cells, antiviral action to HIV ([4]; Example 15): selective cytocidal effect to HIV-infected cells
p24 concentration in supernatant [5]: the p24 concentration decreased depending upon the concentration of the added GM
Numbers of Colonies (Mean Value ± SD) [6]: 72.0 ± 9.5

Source: patent US6177592A, “Compounds” (priority 1997, dated 2001)
